# From patent EP0719251B1, “BICYCLO (2.2.2) OCTANE DERIVATIVES CHOLECYSTOKININ AND/OR GASTRIN ANTAGONISTS” (JAMES BLACK FOUNDATION LIMITED, priority 1993, dated 1995)
# Experiments:
# CCKB receptor = molecular target: T1, CCKB receptor (Mus musculus, UniProt P56481); experiment: radioligand binding assay at the CCKB receptor in mouse cortical membranes; settings: [125I]-CCK8S 200pM, 150 min at 21 ± 3°C; for Ki: read-out: CCKB pKi (converted)
# T1 construct: The whole brains from male mice (CD1 22-25g; Charles River) were removed; from tissue; host or cells: cerebral cortex membranes of male CD1 mice
# T1 sequence (P56481 1-453): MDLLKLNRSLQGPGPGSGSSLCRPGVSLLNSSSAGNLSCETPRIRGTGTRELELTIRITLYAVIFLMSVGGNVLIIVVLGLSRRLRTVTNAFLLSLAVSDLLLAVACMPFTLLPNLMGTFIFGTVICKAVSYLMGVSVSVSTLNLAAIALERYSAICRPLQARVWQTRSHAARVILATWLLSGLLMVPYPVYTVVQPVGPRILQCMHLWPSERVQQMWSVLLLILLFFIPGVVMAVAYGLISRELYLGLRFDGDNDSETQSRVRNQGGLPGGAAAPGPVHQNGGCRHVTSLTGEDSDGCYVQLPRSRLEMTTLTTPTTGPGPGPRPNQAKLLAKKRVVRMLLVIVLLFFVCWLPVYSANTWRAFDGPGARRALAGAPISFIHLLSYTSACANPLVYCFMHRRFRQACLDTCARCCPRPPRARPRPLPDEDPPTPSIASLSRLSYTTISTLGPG
# Protocol: The compounds of the examples were tested for binding at the CCKB receptor in mouse cortical membranes by means of a radioligand binding assay. The procedure was as follows:
# The whole brains from male mice (CD1 22-25g; Charles River) were removed and placed in ice-cold buffer (pH7.2 @ 21 ± 3°C) of the following composition (mM); 10 HEPES, 130 NaCl, 4.7 KCl, 5 MgCl2, 1 EDTA and containing 0.25g.l^-1 bacitracin. The cortex was dissected, weighed and homogenised in 40ml ice-cold buffer using a Teflon-in-glass homogeniser. The homogenate was centrifuged at 39,800g for 20 min at 4°C, the supernatant discarded and the pellet resuspended by homogenisation in fresh buffer. The homogenate was recentrifuged (39,800g; 20 min @ 4°C) and the final pellet was resuspended in HEPES buffer to give a tissue concentration of 2mg.ml^-1(original wet weight).
# The assay was terminated by rapid filtration through pre-soaked Whatman GF/B filters using a Brandell Cell harvester. The filters were washed (3 x 3ml) with ice-cold 50mM Tris-HCl (pH7.4 @ 4°C) and bound radioactivity determined by counting (1 min.) in a gamma-counter.
# gastrin = molecular target: T2, gastrin (Rattus norvegicus, UniProt P30553); experiment: gastrin antagonist activity in an immature rat stomach assay; settings: isolated immature rat stomach, cumulative pentagastrin dose-response curves, acid secretion; read-out: Gastrin pKB (converted)
# T2 construct: The stomach was excised and flushed with ca. 1 ml of unbuffered physiological saline solution; from tissue; host or cells: isolated whole stomach of immature rats (33-50 g, ca. 21 days old)
# T2 sequence (P30553 1-452): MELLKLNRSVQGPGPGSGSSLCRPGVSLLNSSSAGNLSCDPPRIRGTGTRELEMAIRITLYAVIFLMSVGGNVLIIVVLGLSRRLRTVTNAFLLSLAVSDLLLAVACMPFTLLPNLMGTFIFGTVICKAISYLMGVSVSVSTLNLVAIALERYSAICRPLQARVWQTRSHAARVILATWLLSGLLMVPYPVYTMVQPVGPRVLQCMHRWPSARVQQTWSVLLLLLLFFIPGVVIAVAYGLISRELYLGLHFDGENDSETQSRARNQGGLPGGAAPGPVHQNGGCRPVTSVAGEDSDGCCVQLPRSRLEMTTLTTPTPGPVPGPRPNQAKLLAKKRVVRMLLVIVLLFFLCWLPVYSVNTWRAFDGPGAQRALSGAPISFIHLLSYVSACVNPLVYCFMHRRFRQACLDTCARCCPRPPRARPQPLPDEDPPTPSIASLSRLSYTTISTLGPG
# Protocol: The compounds of the examples were also tested for gastrin antagonist activity in an immature rat stomach assay. The procedure was as follows: The oesophagus of immature rats (33-50 g, ca. 21 days old) was ligated at the level of the cardiac sphincter and the duodenal sphincter was cannulated. The stomach was excised and flushed with ca. 1 ml of unbuffered physiological saline solution. The fundus was punctured and cannulated. A further 4-5 ml of unbuffered solution was flushed through the stomach to ensure the preparation was not leaking. […] The stomach was continuously perfused at a rate of 1 ml min^-1 with unbuffered solution gassed with 100% O2 with the perfusate passing over an internally referenced pH-electrode fixed 12 cm above the stomach. After 120 min of stabilisation the drugs were added directly to the serosal solution in the organ bath and after a further 60 min cumulative pentagastrin dose-response curves were started.
# CCKA = molecular target: T3, CCKA (Cavia porcellus, UniProt Q63931); experiment: CCKA binding assay in guinea-pig pancreas membranes; settings: [125I]-CCK8(S) 200pM; for Ki: containing 0.375 µM PD134,308, read-out: CCKA pKi (converted); for CCKA pKi: containing 0.375 µM PD134,308
# T3 construct: The pancreatata were removed from male guinea-pigs (200-300g; Dunkin Hartley); from tissue; host or cells: pancreas membranes of male Dunkin Hartley guinea-pigs
# T3 sequence (Q63931 1-430): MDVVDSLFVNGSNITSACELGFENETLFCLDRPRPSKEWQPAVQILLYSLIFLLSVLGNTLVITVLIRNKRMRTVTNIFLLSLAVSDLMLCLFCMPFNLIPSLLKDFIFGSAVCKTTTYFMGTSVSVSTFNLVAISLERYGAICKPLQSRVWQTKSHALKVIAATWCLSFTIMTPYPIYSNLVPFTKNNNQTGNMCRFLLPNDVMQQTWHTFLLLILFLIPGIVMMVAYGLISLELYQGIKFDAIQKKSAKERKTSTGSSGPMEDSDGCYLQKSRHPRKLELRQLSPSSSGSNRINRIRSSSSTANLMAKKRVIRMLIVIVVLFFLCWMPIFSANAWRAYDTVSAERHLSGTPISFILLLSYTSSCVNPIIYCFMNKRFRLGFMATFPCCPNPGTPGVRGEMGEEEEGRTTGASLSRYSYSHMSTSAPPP
# Protocol: The compounds of the examples were also tested in a CCKÅ binding assay as follows:
# The pancreatata were removed from male guinea-pigs (200-300g; Dunkin Hartley) and placed in ice-cold HEPES buffer (pH 7.2 @ 21 ± 3° ). The pancreatata were homogenised in 40 ml ice-cold HEPES buffer using a polytron (Brinkmann, PT10, setting 10) 4 x 1 second.
# The homogenate was centrifuged at 39,800g for 15 min at 4°. The supernatant was discarded and the pellet re-suspended using a Teflon-in-glass homogeniser in 20 volumes of fresh buffer and recentrifuged as above. The final pellet was re-suspended using a Teflon-in-glass homogeniser to a tissue concentration of 1 mg.ml^-1 (original wet weight), and filtered through 500 µm pore-size Nytex mesh.
# The membranes (400µl; containing 0.375 µM PD134,308) are incubated for 150 minutes at 21 ± 3° in a final volume of 0.5ml with HEPES buffer containing [^125I]-CCK8(S) (50µl; 200pM) and competing compound. Total and non-specific binding of [^125I]-CCK8 (S) are defined using 50µl of buffer and 50µl of 100nM L-364,718 respectively. The assay is terminated by rapid filtration through pre-soaked Whatman GF/B filters using a Brandell Cell Harvester. The filters were washed (3 x 3ml) with ice-cold 50mM Tris HCl (pH 7.4 at 4° ) and bound radioactivity is determined by counting (1 min) in a gamma counter.
Ki (CCKB receptor) [nM],Kb (gastrin) [nM],Ki (CCKA) [nM],CCKB pKi (CCKB receptor),CCKA pKi (CCKA),Molecule
10,5.01,794,,,"O=C(O)c1cc(NC(=O)[C@H](Cc2ccc(Cl)cc2)NC(=O)C2C3c4ccccc4C(c4ccccc43)C2C(=O)NCC23CC4CC(CC(C4)C2)C3)cc(C(=O)O)c1 (single isomer, unassigned) [Example 10, cis-7-(1S-(3,5-dicarboxyphenylaminocarbonyl)-2-(4-chlorophenyl)-ethylaminocarbonyl)-8-(1-adamantanemethylaminocarbonyl) -2,3,5,6-dibenzobicyclo[2.2.2]octane]"
501,398,2510,,,"O=C(O)c1cc(NC(=O)[C@@H](NC(=O)C2C3c4ccccc4C(c4ccccc43)C2C(=O)NCC23CC4CC(CC(C4)C2)C3)c2ccccc2)cc(C(=O)O)c1 (stereo partly drawn) [Example 39, cis-7-(1S-(3,5-dicarboxyphenylaminocarbonyl) -3-phenylmethylaminocarbonyl)-8-(1-adamantanemethylaminocarbonyl) -2,3,5,6-dibenzobicyclo[2.2.2]octane]"
50.1,251,501,,,"O=C(O)c1cc(NC(=O)[C@H](Cc2cccs2)NC(=O)C2C3c4ccccc4C(c4ccccc43)C2C(=O)NCC23CC4CC(CC(C4)C2)C3)cc(C(=O)O)c1 (single isomer, unassigned) [Example 7, cis-7-(1S-(3,5-dicarboxyphenylaminocarbonyl) -2-(2-thiophenyl)ethylaminocarbonyl)-8-(1-adamantanemethylaminocarbonyl) -2,3,5,6-dibenzobicyclo[2.2.2]octane]"
,,,7.5,5.8,"cls-7-(1S-(3,5-dicarboxyphenylaminocarbonyl) -2-phenylethylaminocarbonyl) -8-(2-phenylpropylaminocarbonyl) -2,3,5,6-dibenzobicyclo[2.2.2]octane [Example 54]"
79.4,,1580,,,"O=C(O)c1cc(NC(=O)[C@H](Cc2ccccc2)NC(=O)C2C3c4ccccc4C(c4ccccc43)C2C(=O)NCCc2c[nH]c3ccccc23)cc(C(=O)O)c1 (single isomer, unassigned) [Example 51, cis-7-(1S-(3,5-dicarboxyphenylaminocarbonyl) -2-phenylethylaminocarbonyl)-8-(3-indolylethylaminocarbonyl) -2,3,5,6-dibenzobicyclo [2.2.2]octane]"
200,,1260,,,"O=C(O)c1ccccc1NC(=O)[C@H](Cc1ccccc1)NC(=O)C1C2c3ccccc3C(c3ccccc32)C1C(=O)NCC12CC3CC(CC(C3)C1)C2 (stereo partly drawn) [Example 45, cis-7-(1S-(2-carboxyphenylaminocarbonyl)-2-phenylethylaminocarbonyl)-8-(1-adamantane-methylaminocarbonyl) -2,3,5,6-dibenzobicyclo[2.2.2]octane]"
6.31,,794,,,"O=C(O)c1cccc(NC(=O)[C@H](Cc2cccs2)NC(=O)C2C3c4ccccc4C(c4ccccc43)C2C(=O)NCC23CC4CC(CC(C4)C2)C3)c1 (single isomer, unassigned) [Example 55, cis-7-(1S-(3-carboxyphenylaminocarbonyl)-2-(2-thiophenyl)ethylaminocarbonyl)-8-(1-adamantanemethylaminocarbonyl)-2,3,5,6-dibenzobicyclo[2.2.2]octane]"
15.8,,398,,,"O=C(O)c1cc(NC(=O)[C@H](Cc2ccccc2)NC(=O)C2C3c4ccccc4C(c4ccccc43)C2C(=O)NCCc2c[nH]c3ccccc23)cc(C(=O)O)c1 (single isomer, unassigned) [Example 50, cis-7-(1S-(3,5-dicarboxyphenylaminocarbonyl) -2-phenylethylaminocarbonyl)-8-(3-indolylethylaminocarbonyl)-2,3,5,6-dibenzobicyclo[2.2.2] octane]"
,,,7.3,6.8,"cis-7-(1S-(3,5-dicarboxyphenylaminocarbonyl) -2-phenylethylaminocarbonyl)-8-(2-thiophenylmethylaminocarbonyl)-2,3,5,6-dibenzobicyclo[2.2.2] octane [Example 52]"
316,,1260,,,"O=C(O)c1cc(NC(=O)[C@H](Cc2ccccc2)NC(=O)C2C3c4ccccc4C(c4ccccc43)C2C(=O)NCc2cccc3ccccc23)cc(C(=O)O)c1 (single isomer, unassigned) [Example 33, cis-7-(1S-(3,5-dicarboxyphenylaminocarbonyl)-2-phenylethylaminocarbonyl)-8-(1-naphthalenemethylaminocarbonyl)-2,3,5,6-dibenzobicyclo[2.2.2]octane]"
25.1,,1000,,,"O=C(O)c1cccc(NC(=O)[C@H](Cc2cccs2)NC(=O)C2C3c4ccccc4C(c4ccccc43)C2C(=O)NCC23CC4CC(CC(C4)C2)C3)c1 (single isomer, unassigned) [Example 56]"
3980,,1260,,,"O=C(NCC12CC3CC(CC(C3)C1)C2)C1C2c3ccccc3C(c3ccccc32)C1C(=O)N[C@@H](Cc1ccccc1)C(=O)Nc1ccccc1 (single isomer, unassigned) [Example 22, cis-7-(1S-(phenylaminocarbonyl)-2-phenyl-ethylaminocarbonyl)-8-(1-adamantanemethylaminocarbonyl) -2,3,5,6-dibenzobicyclo[2.2.2]octane]"
